Consider one compound from US20210186947A1, “TOMM6-INTERACTING EXTRACTS AND COMPOUNDS FOR USE IN THE TREATMENT AND PROPHYLAXIS OF NERVOUS SYSTEM DISEASES, ATHEROSCLEROSIS, HEPATITIS B INFECTION AND HUMAN PAPILLOMA VIRUS (HPV) INFECTION” (ETH ZURICH, priority 2018, published 2021).

The subject of one series is PHF-tau. Description: Hippocampal PHF-tau in the Tg-TauP301L model of tauopathy (AT8 antibody). In kind it is in vivo. To be noted: 12-month-old Tg-Tau-P301L mice treated for six months.
In the next series the test system is Ccr9. Description: Whole genome microarray gene expression analysis of aortic genes: Ccr9. In kind it is in vivo. The settings on record: ApoE-/- mice, 10 mg/kg/day for 8 months. How it is done: Whole genome microarray gene expression profiling was performed with aortic specimens isolated from 9-month-old ApoE−/− mice without treatment and with oral treatment for 8 months with alizarin (10 mg/kg/day), and untreated age-matched B6 control mice. Total RNA was isolated by the RNeasy Mini kit according to the protocol of the manufacturer (Qiagen). RNA purity was between 1.8 and 2 as determined by the absorbance ratio of 260/280. RNA quality and absence of signs of degradation were also controlled by RNA electrophoresis on a denaturing agarose gel by the presence of bright bands of 28S and 18S ribosomal RNA. Total RNA was processed for whole genome microarray gene expression profiling with the GeneChip One-Cycle Target Labeling System (Affymetrix) according to the protocol of the manufacturer (Affymetrix GeneChip Expression Analysis Technical Manual Rev. 5). […]
Alzheimer's Disease (AD) is the most frequent form of dementia in the elderly. […] Atherosclerotic lesion area was assessed with oil red O-stained aortas isolated from 9-month-old ApoE−/− mice (FIG. 17A). […] The aortic expression levels of neuronal marker genes of alizarin-treated ApoE−/− mice were determined compared to untreated ApoE−/− mice and untreated B6 mice without atherosclerosis (FIG. 17D,E).

Series [1] in a line: Body weight and food intake of B6 mice under oral treatment. The settings on record: oral 100 mg/kg/day for 4 weeks.
For series [2], the system named is hyperphosphorylated PHF-Tau. The series is described as follows: Hippocampal hyperphosphorylated PHF-Tau in Tg2576 mice subjected to CUMS, binding assay with [125I]-labeled AT8 antibody. Type of series: in vivo. The settings on record: 15 months-old Tg2576 mice, 3 months of CUMS, treated during CUMS; compounds 10 mg/kg/d.
The test system of series [3] is hippocampal neuronal cell bodies (NeuN). The series is described as follows: Hippocampal neuronal loss in Tg2576 mice subjected to CUMS, binding assay with [125I]-labeled anti-NeuN antibody. In kind it is in vivo. The settings on record: 15 months-old Tg2576 mice, 3 months of CUMS, treated during CUMS; compounds 10 mg/kg/d.
For series [4] the following is noted: humans; cited from earlier work.
Another series has as its system mammalian cells. The settings on record: mammalian cells and in vivo; cited from earlier work.

Regarding `O=C1c2ccccc2C(=O)c2c1ccc(O)c2O` [Compound-1, 1,2-dihydroxyanthraquinone], the “hippocampal content of PHF-tau” value with PHF-tau is on record as “significantly decreased hippocampal content of PHF-tau”. Also, the “aortic expression of Ccr9” value in the series on Ccr9 is recorded as “significantly decreased expression”. For the same compound, in series [1] (12-week-old B6 mice), the body weight entry was “did not significantly alter”. In series [1] (B6 mice), the “daily food intake / food consumption” value is “did not significantly alter”. In series [2], the “hippocampal content of hyperphosphorylated PHF-Tau” value is given as “significantly decreased hippocampal content of hyperphosphorylated PHF-Tau”. Moreover, in series [3], the hippocampal neuronal loss result was “prevented”. Besides, the “toxicity of long-term treatment for several years” value in series [4] is recorded as “is not toxic”. In addition, the tumor promotion entry in the series with mammalian cells is on record as “not a tumor promotor”.
